Assay results published in PMC5577615, “Myticalins: A Novel Multigenic Family of Linear, Cationic Antimicrobial Peptides from Marine Mussels (Mytilus spp.)” (Marine Drugs, 2017).
Where no end group is shown, it is not given here.

Legend:
Format in all cases: cell-based
[1] = system: Acinetobacter baumannii ATCC 19606; experiment: MIC, broth microdilution
Method: (§1) The following strains have been used in this study: Escherichia coli ATCC 25922, Staphylococcus aureus ATCC […], Vibrio anguillarum ATCC 43305, Pseudomonas aeruginosa ATCC 27853, Acinetobacter baumannii ATCC 19606, Bacillus subtilis ATCC 6051. Vibrio anguillarum ATCC 43305 was cultivated in tryptic soy broth (TSB, Becton Dickinson, Milan, Italy) implemented with 2% NaCl, all the other strains were grown in Müller-Hinton broth (MH, Becton Dickinson, Milan, Italy).
(§2) The minimum inhibiting concentration (MIC) of each myticalin synthetic peptide was calculated using the broth microdilution method. Briefly, twofold serial dilutions of each peptide were prepared in appropriate growth medium and aliquoted in the wells of a round-bottom microtiter plates (Sarstedt, Nümbrecht, Germany). An overnight culture of each bacterial strain was diluted 1:50 in fresh growth medium and grown to an OD600nm ≈ 0.3. Each well was then inoculated with a standardized inoculum in order to achieve, in a final total volume of 100 μL, a final test concentration of about 5 × 10^5 CFU/mL. The plate was then sealed to minimize evaporation and incubated at 37 °C for 24 h. The day after, the MIC was identified as the lowest concentration of the peptide that impaired any visible bacterial growth.

[2] = system: Bacillus subtilis ATCC 6051; experiment: MIC, broth microdilution
Method: as §1, §2

[3] = system: Escherichia coli ATCC 25922; experiment: MIC, broth microdilution
Method: as §1, §2

[4] = system: Pseudomonas aeruginosa ATCC 27853; experiment: MIC, broth microdilution
Method: as §1, §2

[5] = system: Staphylococcus aureus ATCC 25923; experiment: MIC, broth microdilution
Method: as §1, §2

[6] = system: Vibrio anguillarum ATCC 43305; experiment: MIC, broth microdilution
Method: as §1, §2

[7] = system: tested bacterial strains (Gram-positive and Gram-negative); conditions: for antimicrobial activity / spectrum in words: tested Gram-positive and Gram-negative strains
Method: as §1, §2

[8] = Acinetobacter baumannii ATCC 19606, Müller-Hinton broth, about 5 × 10^5 CFU/mL, 37 °C, 24 h, mode of four independent experiments
[9] = Bacillus subtilis ATCC 6051, Müller-Hinton broth, about 5 × 10^5 CFU/mL, 37 °C, 24 h, mode of four independent experiments
[10] = Escherichia coli ATCC 25922, Müller-Hinton broth, about 5 × 10^5 CFU/mL, 37 °C, 24 h, mode of four independent experiments
[11] = Pseudomonas aeruginosa ATCC 27853, Müller-Hinton broth, about 5 × 10^5 CFU/mL, 37 °C, 24 h, mode of four independent experiments
[12] = Staphylococcus aureus ATCC 25923, Müller-Hinton broth, about 5 × 10^5 CFU/mL, 37 °C, 24 h, mode of four independent experiments
[13] = Vibrio anguillarum ATCC 43305, tryptic soy broth with 2% NaCl, about 5 × 10^5 CFU/mL, 37 °C, 24 h, mode of four independent experiments

Substance: LRWTPTPSYPRYPTRSRGSRWSR-NH2 [Myticalin B1]
- Minimal inhibitory concentration (MIC) ([1]; ATCC 19606, 24 h): 8 µM
- Minimal inhibitory concentration (MIC) ([2]; ATCC 6051, 24 h): 32 µM
- Minimal inhibitory concentration (MIC) ([3]; ATCC 25922, 24 h): 8 to 16 µM
- Minimal inhibitory concentration (MIC) ([4]; ATCC 27853, 24 h): >32 µM
- Minimal inhibitory concentration (MIC) ([5]; ATCC 25923, 24 h): >32 µM
- Minimal inhibitory concentration (MIC) ([6]; ATCC 43305, 24 h): >32 µM
- antimicrobial activity / spectrum in words [7]: moderate antimicrobial activity

Substance: RRRRRFRRVIRRIRLPKYLTINTE [Myticalin C6]
- Minimal inhibitory concentration (MIC) ([1]; ATCC 19606, 24 h): 2 µM
- Minimal inhibitory concentration (MIC) ([2]; ATCC 6051, 24 h): 32 µM
- Minimal inhibitory concentration (MIC) ([3]; ATCC 25922, 24 h): 4 µM
- Minimal inhibitory concentration (MIC) ([4]; ATCC 27853, 24 h): 32 µM
- Minimal inhibitory concentration (MIC) ([5]; ATCC 25923, 24 h): 8 µM
- Minimal inhibitory concentration (MIC) ([6]; ATCC 43305, 24 h): >32 µM
- antimicrobial activity / spectrum in words [7]: moderate antimicrobial activity

Substance: RRRRRYRYWRRGLTIQGRPKSLPLNTGD [Myticalin C9]
- Minimal inhibitory concentration (MIC) ([1]; ATCC 19606, 24 h): 2 µM
- Minimal inhibitory concentration (MIC) ([2]; ATCC 6051, 24 h): 4 µM
- Minimal inhibitory concentration (MIC) ([3]; ATCC 25922, 24 h): 4 µM
- Minimal inhibitory concentration (MIC) ([4]; ATCC 27853, 24 h): 8 µM
- Minimal inhibitory concentration (MIC) ([5]; ATCC 25923, 24 h): 2 µM
- Minimal inhibitory concentration (MIC) ([6]; ATCC 43305, 24 h): >32 µM
- antimicrobial activity / spectrum in words [7]: broad spectrum of activity

Substance: WGRRWRIRIPRLPRPWPPRPKWPRSATINTDQ [Myticalin D2]
- Minimal inhibitory concentration (MIC) ([1]; ATCC 19606, 24 h): 2 µM
- Minimal inhibitory concentration (MIC) ([2]; ATCC 6051, 24 h): 2 µM
- Minimal inhibitory concentration (MIC) ([3]; ATCC 25922, 24 h): 4 µM
- Minimal inhibitory concentration (MIC) ([4]; ATCC 27853, 24 h): 4 µM
- Minimal inhibitory concentration (MIC) ([5]; ATCC 25923, 24 h): 16 to 32 µM
- Minimal inhibitory concentration (MIC) ([6]; ATCC 43305, 24 h): >32 µM
- antimicrobial activity / spectrum in words [7]: broad spectrum of activity

Substance: WPRFPKPRKPTYPGPTYPGPTWPRPTWRRSATIDTEH [Myticalin D5]
- Minimal inhibitory concentration (MIC) ([1]; ATCC 19606, 24 h): >32 µM
- Minimal inhibitory concentration (MIC) ([2]; ATCC 6051, 24 h): >32 µM
- Minimal inhibitory concentration (MIC) ([3]; ATCC 25922, 24 h): >32 µM
- Minimal inhibitory concentration (MIC) ([4]; ATCC 27853, 24 h): >32 µM
- Minimal inhibitory concentration (MIC) ([5]; ATCC 25923, 24 h): >32 µM
- Minimal inhibitory concentration (MIC) ([6]; ATCC 43305, 24 h): >32 µM
- MIC toward all the tested bacterial strains ([7]; 24 h): > 32 µM

Substance: YSWPRMPRIPRLPRYPRYPRYPRWPRHPTIYA-NH2 [Myticalin A8]
- Minimal inhibitory concentration (MIC) [1, 8]: 1 µM
- Minimal inhibitory concentration (MIC) [2, 9]: 4 µM
- Minimal inhibitory concentration (MIC) [3, 10]: 1 µM
- Minimal inhibitory concentration (MIC) [4, 11]: 8 µM
- Minimal inhibitory concentration (MIC) [5, 12]: 16 µM
- Minimal inhibitory concentration (MIC) [6, 13]: >32 µM
- antimicrobial activity / spectrum in words [7]: broad spectrum of activity

Substance: YSWPRMPRIPRLPRYPRYPRYPRWPRWPRQPTIYA-NH2 [Myticalin A5]
- Minimal inhibitory concentration (MIC) [1, 8]: 4 µM
- Minimal inhibitory concentration (MIC) [2, 9]: 4 µM
- Minimal inhibitory concentration (MIC) [3, 10]: 2 µM
- Minimal inhibitory concentration (MIC) [4, 11]: 4 to 8 µM
- Minimal inhibitory concentration (MIC) [5, 12]: 8 to 16 µM
- Minimal inhibitory concentration (MIC) [6, 13]: >32 µM
